The nature of one data set: in vitro. The class given is cell-based. As to conditions: human; GS4.1 cells, Cell Titer 96 AQueous One Solution. The method, then: For cytotoxicity evaluation, GS4.1 cells were treated with compounds as described above and cellular viability was monitored using the Cell Titer 96 AQueous One Solution Cell Proliferation Assay (Promega). CC50 values were determined from the % cytotoxicity versus concentration data with Tecan Magellan software as described above.

Another data set concerns the target T1, HCV NS3-NS4A protease (Hepatitis C virus genotype 1a, UniProt P27958).
T1 construct: HCV NS3-NS4A protease, which was obtained according to Taremi et al; made in house
Put plainly: HCV Protease Assay (SensoLyte 620 HCV Protease Assay kit). The note with it: 1.2 nM HCV NS3-NS4A protease, 60 min, room temperature. The class given is biochemical. The method, then: Measurement of the inhibitory effect of compounds on HCV protease activity was performed with the SensoLyte™ 620 HCV Protease Assay kit from AnaSpec, Inc. (San Jose, Calif.) under conditions described by the supplier using 1.2 nM HCV NS3-NS4A protease, which was obtained according to Taremi et al. (Protein Science, 1998, 7, 2143-2149). The compounds were tested at a variety of concentrations in assay buffer containing a final DMSO concentration of 5%. Reactions were allowed to proceed for 60 min at room temperature and fluorescence measurements were recorded with a Tecan Infinity Spectrofluorimeter. The IC50 values were determined from the percent inhibition versus concentration data using a sigmoidal non-linear regression analysis based on four parameters with Tecan Magellan software.

The subject of data set [1] is HCV Con1 subgenomic replicon in Huh-7 cells (GS4.1 cells). Put plainly: HCV Replicon Assay (NS4A ELISA). It counts as cell-based. The note with it: Hepatitis C virus, 72 hr. The method, then:
Huh-7 cells containing HCV Con1 subgenomic replicon (GS4.1 cells) were grown in Dulbecco's Modified Eagle Medium (DMEM) supplemented with 10% fetal bovine serum (FBS), 2 mM L-glutamine, 110 mg/L sodium pyruvate, 1× non-essential amino acids, 100 U/mL penicillin-streptomycin, and 0.5 mg/mL G418 (Invitrogen). For dose-response testing, the cells were seeded in 96-well plates at 7.5×10^3 cells/well in a volume of 50 μL, and incubated at 37° C./5% CO2. Three hours after plating, 50 μL of ten 2-fold serial dilutions of compounds (highest concentration, 75 μM) were added, and cell cultures were incubated at 37° C./5% CO2 in the presence of 0.5% DMSO. Alternatively, compounds were tested at a single concentration of 15 μM. In all cases, Huh-7 cells lacking the HCV replicon served as negative control. The cells were incubated in the presence of compounds for 72 hr after which they were monitored for expression of the NS4A protein by enzyme-linked immunosorbent assay (ELISA). For this, the plates were then fixed for 1 min with acetone/methanol (1:1, v/v), washed twice with phosphate-buffered saline (PBS), 0.1% Tween 20, blocked for 1 hr at room temperature with TNE buffer containing 10% FBS and then incubated for 2 hr at 37° C. with the anti-NS4A mouse monoclonal antibody A-236 (ViroGen) diluted in the same buffer. After washing three times with PBS, 0.1% Tween 20, the cells were incubated 1 hr at 37° C. with anti-mouse immunoglobulin G-peroxidase conjugate in TNE, 10% FBS. After washing as described above, the reaction was developed with O-phenylenediamine (Zymed). The reaction was stopped after 30 min with 2 N H2SO4, and absorbance was read at 492 nm using Sunrise Tecan spectrophotometer. EC50 values were determined from the % inhibition versus concentration data using a sigmoidal non-linear regression analysis based on four parameters with Tecan Magellan software.
For orientation: In antiviral work, replicon cells carry a viral genome segment that copies itself.

Where only a bound is given, the exact number is not on record here.

T1 sequence (P27958 1027-1208): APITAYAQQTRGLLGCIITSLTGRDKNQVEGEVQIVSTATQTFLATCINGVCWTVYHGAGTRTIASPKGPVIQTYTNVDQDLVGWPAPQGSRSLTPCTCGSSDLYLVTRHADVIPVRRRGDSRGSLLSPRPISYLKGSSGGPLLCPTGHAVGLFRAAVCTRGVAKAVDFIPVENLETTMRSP

One may read the CC50 as the concentration at which the toxic effect on the cells reaches its halfway point. As a reminder, the IC50 is the point on the concentration scale where inhibition reaches its midpoint. A high value points to a need for much substance. In general, EC50 refers to the concentration that produces a half-maximal response. Regarding `COc1ccc2c(O[C@H]3CCN4C(=O)N(C)CCCC/C=C\[C@@H]5C[C@@]5(C(=O)NS(=O)(=O)C5CC5)NC(=O)[C@@H]4C3)cc(-c3nc(C(F)(F)F)cs3)nc2c1C` [Compound 51, 1-cyclopropanesulfonic acid{(Z)-(1S,4R,6S,18S)-18-[7-methoxy-8-methyl-2-(4-trifluoromethyl-thiazol-2-yl)-quinolin-4-yloxy]-13-methyl-2,14-dioxo-3,13,15-triaza-tricyclo[13.4.0.0*4,6*]nonadec-7-ene-4-carbonyl}amide], the CC50 in the data set “in vitro” fell in the range of 10000 to 75000 nM. The compound also gave an IC50 against HCV NS3-NS4A protease below 1000 nM. In data set [1], this compound registered an EC50 below 1000 nM.
`COc1ccc2c(O[C@H]3CCN4C(=O)N(C)CCOC/C=C\[C@@H]5C[C@@]5(C(=O)NS(=O)(=O)C5(C)CC5)NC(=O)[C@@H]4C3)cc(-c3nc(C(F)(F)F)cs3)nc2c1C` [Compound 54] returned a CC50 in the data set “in vitro” above 75000 nM. The compound further came in with an IC50 on HCV NS3-NS4A protease below 1000 nM. The compound also showed an EC50 in data set [1] of 1000 to 10000 nM.
Compound `C#Cc1csc(-c2cc(O[C@H]3CCN4C(=O)N(C)CCCC/C=C\[C@@H]5C[C@@]5(C(=O)NS(=O)(=O)C5(C)CC5)NC(=O)[C@@H]4C3)c3ccc(OC)c(C)c3n2)n1` [Compound 55, 1-methyl-cycloprpoanesulfonic acid{(Z)-(1S,4R,6S,18S)-18-[2-(4-ethynyl-thiazol-2-yl)-7-methoxy-8-methyl-quinolin-4-yl-oxy]-13-methyl-2,14-dioxo-3,13,15-triaza-tricyclo[13.4.0.0*4,6*]nonadec-7-ene-4-carbonyl}-amide] displayed a CC50 in the data set “in vitro” of 10000 to 75000 nM. The compound also returned an IC50 at HCV NS3-NS4A protease below 1000 nM. Besides, in data set [1], the EC50 was below 1000 nM.
`COc1ccc2c(O[C@H]3CCN4C(=O)N(C)CCCC/C=C\[C@@H]5C[C@@]5(C(=O)NS(=O)(=O)C5(C)CC5)NC(=O)[C@@H]4C3)nc(-c3ccc(F)cc3)nc2c1C` [Compound 56] returned a CC50 in the data set “in vitro” above 75000 nM. The compound also gave an IC50 against HCV NS3-NS4A protease below 1000 nM. The compound also came in with an EC50 in data set [1] below 1000 nM.
Turning to `COc1ccc2c(O[C@H]3CCN4C(=O)N(C)CCCC/C=C\[C@@H]5C[C@@]5(C(=O)NS(=O)(=O)C5(C)CC5)NC(=O)[C@@H]4C3)nc(-c3nc(C(F)(F)F)cs3)nc2c1C` [Compound 57, 1-methyl-cyclopropanesulfonic acid {(Z)-(1S,4R,6S,18S)-18-[7-methoxy-8-methyl-2-(4-trifluoromethyl-thiazol-2-yl)quinazolin-4-yloxy]-13-methyl-2,14-dioxo-3,13,15-triaza-tricyclo[13.4.0.0*4,6*]nonadec-7-ene-4-carbonyl}-amide], the CC50 in “in vitro” fell in the range of 10000 to 75000 nM. The compound further yielded an IC50 against HCV NS3-NS4A protease below 1000 nM. Besides, the EC50 in data set [1] is below 1000 nM.
Regarding `COc1ccc2c(O[C@H]3CCN4C(=O)CCCCC/C=C\[C@@H]5C[C@@]5(C(=O)NS(=O)(=O)C5CC5)NC(=O)[C@@H]4C3)cc(-c3nc(C(F)(F)F)cs3)nc2c1C` [Compound 58], the CC50 in the data set “in vitro” fell in the range of 10000 to 75000 nM. Also, at HCV NS3-NS4A protease, the IC50 is below 1000 nM. In addition, in data set [1], the EC50 is below 1000 nM.

The values above are taken from patent US8993595B2, “Macrocyclic serine protease inhibitors” (priority 2009, dated 2015).
